Source: US7030135B2, “Inhibitors of 11-β-hydroxy steroid dehydrogenase type 1” (Biovitrum AB, priority 2000, dated 2006)

What was measured:
[1] = target: T1, human 11-β-hydroxysteroid dehydrogenase type-1 enzyme (11-β-HSD1) (Homo sapiens, UniProt P28845); test: 11-β-HSD1 enzyme scintillation proximity assay; type: biochemical; conditions: human 11-β-HSD1 expressed in Pichia pastoris; Ki calculated from IC50 (Cheng-Prusoff)
T1 construct: made in house; host or cells: Pichia pastoris
Description: [1,2(n)-^3H]-cortisone was purchased from Amersham Pharmacia Biotech. Anti-cortisol monoclonal mouse antibody, clone 6D6.7 was obtained from Immunotech and Scintillation proximity assay (SPA) beads coated with monoclonal antimouse antibodies were from Amersham Pharmacia Biotech. NADPH, tetrasodium salt was from Calbiochem and glucose-6-phosphate (G-6-P) was supplied by Sigma The human 11-β-hydroxysteroid dehydrogenase type-1 enzyme (11-β-HSD1) was expressed in Pichia pastoris. 18-β-glycyrhetinic acid (GA) was obtained from Sigma. The serial dilutions of the compounds were performed on a Tecan Genesis RSP 150. […]
The multiplication of plates was done on a WallacQuadra. The amount of the product [^3H]-cortisol, bound to the beads was determined in a Packard, Top Count microplate liquid scintillation counter. […]
The plates were covered with plastic film and incubated on a shaker for 30 minutes, at room temperature, before counting. The amount of [^3H]-cortisol, bound to the beads was determined in a microplate liquid scintillation counter.
The calculation of the Ki values for the inhibitors was performed by use of Activity Base. The Ki value is calculated from IC50 and the Km value is calculated using the Cheng Prushoff equation (with reversible inhibition that follows the Michaelis-Menten equation): […] [Cheng, Y. C.; Prushoff, W. H. Biochem. Pharmacol. 1973, 22, 3099–3108]. […]

bone nodule formation = conditions: cited from earlier work

T1 sequence (P28845 whole entry): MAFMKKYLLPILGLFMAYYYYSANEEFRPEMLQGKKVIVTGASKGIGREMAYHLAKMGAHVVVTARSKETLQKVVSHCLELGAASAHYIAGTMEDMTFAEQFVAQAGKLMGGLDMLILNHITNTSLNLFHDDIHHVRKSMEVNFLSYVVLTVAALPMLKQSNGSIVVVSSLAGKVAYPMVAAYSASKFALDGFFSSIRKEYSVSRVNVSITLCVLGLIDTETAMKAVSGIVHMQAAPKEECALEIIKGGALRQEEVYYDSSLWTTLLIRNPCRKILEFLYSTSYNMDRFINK

Row | Ki [1] [µM] | Compound | negative glucocorticoid effect on bone nodule formation (bone nodule formation)
1 | 0.028 | Cc1cc(Cl)cc(Cl)c1S(=O)(=O)Nc1nc2c(s1)C(=O)CC(C)(C)C2 [Example 8, 2,4-Dichloro-N-(5,5-dimethyl-7-oxo-4,5,6,7-tetrahydro-1,3-benzothiazol-2-yl)-6-methylbenzenesulfonamide.] | 
2 | 0.227 | Cc1cc(Br)ccc1S(=O)(=O)Nc1nc2c(s1)C(=O)CC(C)C2 (stereo not drawn) [Example 16, 4-Bromo-2methyl-N-(5methyl-7-oxo-4,5,6,7-tetrahydro-1,3-benzothiazol-2-yl)benzenesulfonamide] | 
3 |  | CC1(C)[C@@H](OC(=O)CCC(=O)O)CC[C@]2(C)[C@H]3C(=O)C=C4[C@@H]5C[C@@](C)(C(=O)O)CC[C@]5(C)CC[C@@]4(C)[C@]3(C)CC[C@@H]12 [carbenoxolone] | could be blocked
